The values below come from patent US6861442B1, “PYK2 and inflammation” (Sugen, Inc., priority 1998, dated 2005).

The test system of assay [1] is P388D1 cells. Nature of the assay: TNF-α secretion by P388D1 macrophage clones measured by ELISA. Type of assay: cell-based, murine. The settings on record: for Secretion of TNF-α caused by the stimulus: 1 μg/mL, overnight (18 hours), P388D1 doxycycline inducible clones; for Secretion of TNF-α: P388D1 cells stimulated with LPS or PMA. The text has this: FIGS. 8a, 8b, 8c, and 8d compare the secretion of TNF-α by wild-type and kinase mutant P388D1 cells in response to activators of macrophage function or PYK2 activity. FIGS. 8a and 8b show the effect of LPS in the presence and absence of DOX on TNF-α secretion from kinase mutant (dominant negative; FIG. 8a) and wild-type (FIG. 8b) cells. FIGS. 8c and 8d show the effect of PMA in the presence and absence of DOX on TNF-α secretion from kinase mutant (FIG. 8c) and wild-type (FIG. 8d) cells. Induction of P388D1 cells in the presence of doxicycline was carried out for 48 hours followed by stimulation with LPS (1 μg/mL) or PMA (1 μg/mL) for 18 hrs. Secreted TNF-α was measured by ELISA.
TNF secretion in response to stimulation with either LPS (1 μg/mL) or PMA (1 μg/mL) by the doxycycline inducible clones is shown in FIG. 8. Induction in the presence of doxycycline was carried out for 48 hours followed by stimulation with LPS or PMA overnight (18 hours). […] Secreted TNF-α was measured by ELISA. […] Secretion of TNF-α was inhibited by herbimycin A and genestein, which are non-specific inhibitors of tyrosine phosphorylation.
For orientation: In an ELISA, binding on a coated surface is turned into a signal by an enzyme label.

Assay [2] concerns the target T1, Pyk2 (Mus musculus, UniProt Q9QVP9).
T1 construct: abrogates the function of the endogenous wild-type PYK2 protein in these macrophages; endogenous in cells; host or cells: P388D1 murine macrophage cell line
Nature of the assay: Tyrosine phosphorylation of Pyk2 in response to LPS stimulation in P388D1 cells (anti-Pyk2 IP, anti-phosphotyrosine 4G10 western blot). Type of assay: cell-based, murine. Conditions: P388D1 cells pre-treated 4 hours, then stimulated with LPS for 30 minutes. The method, then: FIGS. 6a and 6b show the tyrosine phosphorylation of PYK2 in macrophage cell lines in response to LPS (lipopolysaccharide) and tyrosine kinase inhibitors. Cells were either starved overnight in 0.5% serum and stimulated with LPS for variable time intervals (FIG. 6a), or were pre-treated with either herbimycin A or genestein for 4 hours and then stimulated with LPS for 30 minutes (FIG. 6b). After stimulation, cells were washed, lysed, and immunoprecipitated with anti-PYK2 antibody. Immunoprecipitates (IP) were then analyzed by western blotting.
Cells were lysed in lysis buffer containing 50 mM N-2-hydroxyethylpiperazine-N′-2-ethanesulferic acid (HEPES pH 7.5), 150 mM NaCl, 10% glycerol, 1% Triton X-100, 1.5 mM MgCl2, 1 mM ethyleneglycol-bis (β-aminoethyl ether)-N,N,N′N′-tetraacetic acid (EGTA), 10 μg leupeptin per mL, 10 μg aprotinin per mL, 1 mM phenylmethylsulfonyl fluoride (PMSF), 200 μM sodium orthovanadate and 100 mM sodium fluoride. […] The washed immunoprecipitates were incubated for 5 min with gel sample buffer at 100° C. and analyzed by sodium dodecyl sulfate polyacrylamide gel electrophoresis (SDS-PAGE). […]
Tyrosine phosphorylation of Pyk2 in response to LPS stimulation was measured in P388D1 cells. […] Immuno-precipitates were then analyzed by western blotting. Tyrosine phosphorylated bands were detected with the anti-phosphotyrosine antibody 4G10. […]
In general terms: Immunoblotting shows a protein as a band on a membrane.

Assay [3] relates to wild type macrophages. Put plainly: Cytoplasmic calcium release in single Fura-2 loaded adherent macrophages. Conditions: wild type macrophages attached to cover slips. The format is cell-based, mice. The method, then: Cells grown in 6-well plates were labeled for 24 h in medium-199 containing myo-[^3H]inositol(20 μCi/ml). The cells were washed once with PBS and pre-incubated for 10 min. in 2 ml of PBS containing 10 mM LiCl (PH 7.4) at 37° C. prior to the addition of chemokines. The cells were extracted with methanol/1M HCl/chloroform 1:1:1 and analyzed by high-performance liquid chromatography (HPLC) as described (Falasca, et al. (1998) EMBO J. 17:414-422). [Ca^2+] i measurements were performed in single macrophages as described (Falasca, et al. 1995).
Calcium plays an important role in the control of a variety of intracellular events as well as in the control of cell shape, and cell movement (Lawson and Maxfield, 1995). We therefore measured cytoplasmic calcium release in single cells in response to MIP1α stimulation by using quantitative fluorescence microscopy of Fura-2 loaded cells. […] Defect in calcium release may contribute towards the failure of the cells to detach at the rear end leading to impairment in cell migration since proteins that regulate the degradation of focal contact components and disassembly of F-actin require calcium for their action (Witke, et al. (1995) Cell 81:41-51; Kulkarni, et al. (1999) J. Biol Chem. 274:21265-21275).

T1 sequence (Q9QVP9 whole entry): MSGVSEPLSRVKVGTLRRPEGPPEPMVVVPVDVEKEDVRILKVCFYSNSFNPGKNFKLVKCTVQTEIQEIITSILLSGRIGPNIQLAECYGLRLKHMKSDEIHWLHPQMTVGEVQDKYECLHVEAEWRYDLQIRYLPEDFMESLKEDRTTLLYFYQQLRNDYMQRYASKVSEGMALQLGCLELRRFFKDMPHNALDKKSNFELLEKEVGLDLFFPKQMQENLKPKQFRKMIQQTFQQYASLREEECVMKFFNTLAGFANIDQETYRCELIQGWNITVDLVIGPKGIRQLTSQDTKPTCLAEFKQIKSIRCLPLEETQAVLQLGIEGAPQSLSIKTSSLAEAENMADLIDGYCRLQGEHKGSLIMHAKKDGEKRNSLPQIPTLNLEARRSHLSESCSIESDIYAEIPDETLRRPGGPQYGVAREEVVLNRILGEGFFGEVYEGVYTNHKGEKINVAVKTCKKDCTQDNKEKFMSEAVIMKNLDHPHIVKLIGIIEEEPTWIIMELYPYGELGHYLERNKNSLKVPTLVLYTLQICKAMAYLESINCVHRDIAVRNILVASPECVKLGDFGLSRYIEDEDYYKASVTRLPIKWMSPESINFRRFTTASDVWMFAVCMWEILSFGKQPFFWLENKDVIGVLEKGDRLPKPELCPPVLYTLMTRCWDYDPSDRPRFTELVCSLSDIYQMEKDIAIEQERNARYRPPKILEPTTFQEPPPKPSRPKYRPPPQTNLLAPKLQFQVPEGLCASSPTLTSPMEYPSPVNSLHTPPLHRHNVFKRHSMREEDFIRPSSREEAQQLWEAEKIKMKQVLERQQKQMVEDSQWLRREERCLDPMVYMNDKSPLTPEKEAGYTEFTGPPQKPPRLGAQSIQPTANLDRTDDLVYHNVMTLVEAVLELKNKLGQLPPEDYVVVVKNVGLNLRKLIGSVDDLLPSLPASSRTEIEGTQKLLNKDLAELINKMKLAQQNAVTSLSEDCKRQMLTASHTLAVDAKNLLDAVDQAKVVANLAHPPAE

On to `CCCCCCCCCCCCCC(=O)O[C@@H]1[C@@H](C)[C@@]2(O)[C@@H](C=C(CO)C[C@]3(O)C(=O)C(C)=C[C@@H]23)[C@@H]2C(C)(C)[C@]12OC(C)=O` [PMA, phorbol 12-myristate 13-acetate], for which, in assay [1], the “Secretion of TNF-α caused by the stimulus” value is recorded as “caused secretion of TNF-α”.
`O=c1c(-c2ccc(O)cc2)coc2cc(O)cc(O)c12` [genestein]: the “Tyrosine phosphorylation of Pyk2” value in assay [2] is given as “diminished”. Besides, the “Secretion of TNF-α” value in assay [1] is listed as “inhibited”.
On the same counts, the results for `CO[C@H]1[C@@H](OC)C[C@H](C)[C@@H](OC)C2=CC(=O)C=C(NC(=O)/C(C)=C/C=C\[C@H](OC)[C@@H](OC(N)=O)/C(C)=C/[C@@H]1C)C2=O` [herbimycin A] are “diminished” and “inhibited”.
For “MIP1α: chemokine used to stimulate macrophages”, in assay [3], the “Maximum increase in cytoplasmic [Ca+2] concentration” value is “approximately 300 nM”.
Consider lipopolysaccharide [LPS], for which the “Secretion of TNF-α caused by the stimulus” value in assay [1] is given as “caused secretion of TNF-α”.
